Data published in patent US7674801B2 (AstraZeneca AB, priority 2006, dated 2010).

These compounds were tested against S. aureus (SAU) GyrB ATPase (Staphylococcus aureus, UniProt P0A0K8) (assay: S. aureus GyrB ATPase inhibition, ammonium molybdate/malachite green phosphate detection assay). Details: compound concentration 12.5 μM; 12.5 µM.
Sequence of S. aureus (SAU) GyrB ATPase (P0A0K8 whole entry): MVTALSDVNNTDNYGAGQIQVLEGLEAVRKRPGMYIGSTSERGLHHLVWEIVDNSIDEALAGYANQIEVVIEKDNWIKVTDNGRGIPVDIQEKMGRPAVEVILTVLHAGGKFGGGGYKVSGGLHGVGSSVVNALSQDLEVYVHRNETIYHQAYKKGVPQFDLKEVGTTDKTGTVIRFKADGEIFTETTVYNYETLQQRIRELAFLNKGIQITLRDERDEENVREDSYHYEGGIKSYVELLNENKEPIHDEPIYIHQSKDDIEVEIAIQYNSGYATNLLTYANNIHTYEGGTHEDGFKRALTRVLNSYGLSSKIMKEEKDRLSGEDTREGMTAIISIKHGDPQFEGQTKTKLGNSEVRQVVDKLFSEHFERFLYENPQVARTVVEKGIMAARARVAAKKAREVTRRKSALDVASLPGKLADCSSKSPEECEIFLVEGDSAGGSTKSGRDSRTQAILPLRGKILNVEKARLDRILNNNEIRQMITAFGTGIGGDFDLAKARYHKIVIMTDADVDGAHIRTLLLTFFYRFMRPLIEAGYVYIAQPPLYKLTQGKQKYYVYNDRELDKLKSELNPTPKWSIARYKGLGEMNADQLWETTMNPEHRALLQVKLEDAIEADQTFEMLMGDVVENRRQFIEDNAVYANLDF
Sequence of S. aureus (SAU) GyrB ATPase (P0AES4 whole entry, further chain): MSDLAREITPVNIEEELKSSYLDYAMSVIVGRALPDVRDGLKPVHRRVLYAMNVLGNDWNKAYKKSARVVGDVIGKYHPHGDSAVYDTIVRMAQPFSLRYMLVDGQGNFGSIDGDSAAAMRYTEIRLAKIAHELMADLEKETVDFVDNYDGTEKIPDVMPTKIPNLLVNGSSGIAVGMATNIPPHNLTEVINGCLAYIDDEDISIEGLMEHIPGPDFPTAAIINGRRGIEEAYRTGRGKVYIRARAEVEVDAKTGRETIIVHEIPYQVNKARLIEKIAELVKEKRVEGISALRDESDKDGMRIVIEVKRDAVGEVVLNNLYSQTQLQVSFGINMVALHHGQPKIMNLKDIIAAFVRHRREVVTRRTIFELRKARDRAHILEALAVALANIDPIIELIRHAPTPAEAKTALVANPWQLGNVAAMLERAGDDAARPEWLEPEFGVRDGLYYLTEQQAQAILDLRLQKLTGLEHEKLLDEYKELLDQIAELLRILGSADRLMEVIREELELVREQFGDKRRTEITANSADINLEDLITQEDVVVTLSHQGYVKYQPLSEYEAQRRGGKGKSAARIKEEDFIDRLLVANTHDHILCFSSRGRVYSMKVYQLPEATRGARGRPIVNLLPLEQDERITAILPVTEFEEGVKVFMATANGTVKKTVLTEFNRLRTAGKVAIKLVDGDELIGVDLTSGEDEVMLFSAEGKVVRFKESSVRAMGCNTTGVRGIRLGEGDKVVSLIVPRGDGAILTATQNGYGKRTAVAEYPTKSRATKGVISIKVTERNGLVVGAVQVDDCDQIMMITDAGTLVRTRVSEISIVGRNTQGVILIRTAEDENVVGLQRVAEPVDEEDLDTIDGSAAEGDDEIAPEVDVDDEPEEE
Format: biochemical
Method: Compounds were tested for inhibition of GyrB ATPase activity using an ammonium molybdate/malachite green-based phosphate detection assay (Lanzetta, P. A., L. J. Alvarez, P. S. Reinach, and O. A. Candia, 1979, 100: 95-97). Assays were performed in multiwell plates in 100 μl reactions containing: 50 mM Hepes buffer pH 7.5, 75 mM ammonium acetate, 8.0 mM magnesium chloride, 1.0 mM ethylenediaminetetraacetic acid, 5% glycerol, 2 mM 1,4-Dithio-DL-threitol, 400 nM bovine serum albumin, 5 μg/ml sheared salmon sperm DNA, 1.25 nM E. coli GyrA, 1.25 nM S. aureus GyrB, 500 μM ATP, and compound in dimethylsulfoxide. Reactions were quenched with 150 μl of ammonium molybdate/malachite green detection reagent containing 1.2 mM malachite green hydrochloride, 8.5 mM ammonium molybdate tetrahydrate, and 1 M hydrochloric acid. Plates were read in an absorbance plate reader at 650 nm and percent inhibition values were calculated using dimethylsulfoxide (2%)-containing reactions as 0% inhibition and novobiocin-containing (2 μM) reactions as 100% inhibition controls. Compound potency was based on IC50 measurements determined from reactions performed in the presence of 10 different compound concentrations.
`CCNC(=O)Nc1ccc(-c2nc(-c3ncnn3C)c(C(=O)O)s2)cn1` [Example 90, 2-(6-{[(Ethylamino)carbonyl]amino}pyridin-3-yl)-4-(1-methyl-1H-1,2,4-triazol-5-yl)-1,3-thiazole-5-carboxylic acid] was tested, and the “S. aureus (SAU) GyrB ATPase % Inhibition” value was 19.71%.

Same assay, conditions: read-out: S. aureus (SAU) GyrB ATPase % Inhibition, compound concentration 12.5 μM
Compound `CCNC(=O)Nc1ccc(-c2ccc3c(c2)c(=O)c(C(=O)O)cn3CCOC)cn1` [Example 46, 6-(6-(3-Ethylureido)pyridin-3-yl)-1-(2-methoxyethyl)-4-oxo-1,4-dihydroquinoline-3-carboxylic acid] has an inhibition at 12.5 µM of 83.4%.
In the case of `CCCCn1cc(C(=O)O)c(=O)c2cc(-c3ccc(NC(=O)NCC)nc3)ccc21` [Example 47, 1-Butyl-6-(6-(3-ethylureido)pyridin-3-yl)-4-oxo-1,4-dihydroquinoline-3-carboxylic acid], the inhibition at 12.5 µM was 91.7%.
`CCNC(=O)Nc1ccc(-c2ccc3c(c2)c(=O)c(C(=O)O)cn3CCN2CCOCC2)cn1` [Example 48, 6-(6-(3-ethylureido)pyridin-3-yl)-1-(2-morpholinoethyl)-4-oxo-1,4-dihydroquinoline-3-carboxylic acid] was tested, and the inhibition at 12.5 µM was 101%.
In the case of `CCNC(=O)Nc1ccc(-c2ccc3c(c2)c(=O)c(C(=O)O)cn3CC(F)F)cn1` [Example 49, 1-(2,2-difluoroethyl)-6-(6-(3-ethylureido)pyridin-3-yl)-4-oxo-1,4-dihydroquinoline-3-carboxylic acid], the inhibition at 12.5 µM was 37.8%.
`CCNC(=O)Nc1ccc(-c2c[nH]c(=O)c(C(=O)O)c2)cn1` [Example 51, 5-(6-(3-ELthylureido)pyridin-3-yl)-2-oxo-1,2-dihydropyridine-3-carboxylic acid] showed an inhibition at 12.5 µM of 62.1%.
`CCNC(=O)Nc1ccc(-c2nc(C(=O)N(C)C)c(C(=O)NCC)s2)cn1` [Example 54, N^5-Ethyl-2-(6-{[(ethylamino)carbonyl]amino}pyridin-3-yl)-N^4,N^4-dimethyl-1,3-thiazole-4,5-dicarboxamide] was tested, and the inhibition at 12.5 µM was 89.8%.
Work on `CCCNC(=O)c1sc(-c2ccc(NC(=O)NCC)nc2)nc1C(=O)N(C)C` [Example 55, 2-[6-(3-Ethyl-ureido)-pyridin-3-yl]-thiazole-4,5-dicarboxylic acid 4-dimethylamide 5-propylamide] yielded an inhibition at 12.5 µM of 86.4%.
Compound `CCNC(=O)Nc1ccc(-c2nc(C(=O)N(C)C)c(C(=O)NC(C)C)s2)cn1` [Example 56, 2-[6-(3-Ethyl-ureido)-pyridin-3-yl]-thiazole-4,5-dicarboxylic acid 4-dimethylamide 5-isopropylamide] has an inhibition at 12.5 µM of 84.1%.
Work on `CCNC(=O)Nc1ccc(-c2nc(C(=O)N(C)C)c(C(=O)N(C)C)s2)cn1` [Example 57, 2-[6-(3-Ethyl-ureido)-pyridin-3-yl]-thiazole-4,5-dicarboxylic acid bis-dimethylamide] yielded an inhibition at 12.5 µM of 80.1%.
`CCNC(=O)Nc1ccc(-c2nc(C(=O)N(C)C)c(C(=O)NC3CCCC3)s2)cn1` [Example 58, 2-[6-(3-Ethyl-ureido)-pyridin-3-yl]-thiazole-4,5-dicarboxylic acid 5-yclopentylamide 4-dimethylamide] showed an inhibition at 12.5 µM of 89.3%.
Work on `CCNC(=O)Nc1ccc(-c2nc(C(=O)NCC)c(C(=O)N(C)C)s2)cn1` [Example 61, 2-[6-(3-Ethyl-ureido)-pyridin-3-yl]-thiazole-4,5-dicarboxylic acid 5-dimethylamide 4-ethylamide] yielded an inhibition at 12.5 µM of 92.8%.
With `CCCNC(=O)c1nc(-c2ccc(NC(=O)NCC)nc2)sc1C(=O)N(C)C` [Example 64, 2-[6-(3-ethyl-ureido)-pyridin-3-yl]-thiazole-4,5-dicarboxylic acid 5-dimethylamide 4-propylamide] the inhibition at 12.5 µM was 92.6%.
In the case of `CCNC(=O)Nc1ccc(-c2nc(C(=O)NC(C)C)c(C(=O)N(C)C)s2)cn1` [Example 67], the inhibition at 12.5 µM was 92.5%.
Work on `CCNC(=O)Nc1cc(-c2cncc(F)c2)c(-c2cncc(C(=O)O)c2)cn1` [Example 69, 6′-{[(Ethylamino)carbonyl]amino}-5″-fluoro-3,3′:4′,3″-terpyridine-5-carboxylic acid] yielded an inhibition at 12.5 µM of 88.5%.
Work on `CCNC(=O)Nc1cc(-c2cncc(F)c2)c(-c2cncc(C(=O)NC)c2)cn1` [Example 70, 6′-{[(ethylamino)carbonyl]amino}-5″-fluoro-N-methyl-3,3′:4′,3″-terpyridine-5-carboxamide] yielded an inhibition at 12.5 µM of 88.2%.
For `CCNC(=O)Nc1ccc(-c2nc(-c3nccn3CCOC)c(C(=O)OC)s2)cn1` [Example 71, Methyl 2-(6-{[(ethylamino)carbonyl]amino}pyridin-3-yl)-4-[1-(2-methoxyethyl)-1H-imidazol-2-yl]-1,3-thiazole-5-carboxylate], the inhibition at 12.5 µM was 93%.
Compound `CCNC(=O)Nc1ccc(-c2nc(-c3ncnn3C)c(C(=O)OC)s2)cn1` [Example 72, Methyl 2-(6-{[(ethylamino)carbonyl]amino}pyridin-3-yl)-4-(1-methyl-1H-1,2,4-triazol-5-yl)-1,3-thiazole-5-carboxylate] has an inhibition at 12.5 µM of 80.3%.
`CCNC(=O)Nc1ccc(-c2nc(C(=O)N[C@@H](C)COC)c(C(=O)OCC)s2)cn1` [Example 74, Ethyl 2-(6-{[(ethylamino)carbonyl]amino}pyridin-3-yl)-4-({[(1S)-2-methoxy-1-methylethyl]amino}carbonyl)-1,3-thiazole-5-carboxylate] was tested, and the inhibition at 12.5 µM was 0.95%.
In the case of `CCNC(=O)Nc1ccc(-c2nc(-c3nccn3C)c(C(=O)OC)s2)cn1` [Example 75, Methyl 2-(6-{[(ethylamino)carbonyl]amino}pyridin-3-yl)-4-(1-methyl-1H-imidazol-2-yl)-1,3-thiazole-5-carboxylate], the inhibition at 12.5 µM was 93.5%.
With `CCNC(=O)Nc1ccc(-c2nc(C(=O)NC(C)(C)C)c(C(=O)OCC)s2)cn1` [Example 76, Ethyl 4-[(tert-butylamino)carbonyl]-2-(6-{[(ethylamino)carbonyl]amino}pyridin-3-yl)-1,3-thiazole-5-carboxylate] the inhibition at 12.5 µM was 88.2%.
In the case of `CCNC(=O)Nc1cc(-c2ccccc2)c(-c2cncc(C(=O)OCC)c2)cn1` [Example 77, Ethyl 6′-{[(ethylamino)carbonyl]amino}-4′-phenyl-3,3′-bipyridine-5-carboxylate], the inhibition at 12.5 µM was 101%.
With `CCNC(=O)Nc1cc(-c2nc(C(F)(F)F)cs2)c(-c2cncc(C(=O)OCC)c2)cn1` [Example 83, Ethyl 6′-{[(ethylamino)carbonyl]amino}-4′-[4-(trifluoromethyl)-1,3-thiazol-2-yl]-3,3′-bipyridine-5-carboxylate] the inhibition at 12.5 µM was 86.9%.
`CCNC(=O)Nc1cc(-c2cccnc2)c(-c2cncc(C(=O)OCC)c2)cn1` [Example 85, Ethyl 6′-{[(ethylamino)carbonyl]amino}-3,3′:4′,3″-terpyridine-5-carboxylate] was tested, and the inhibition at 12.5 µM was 94.9%.
In the case of `CCNC(=O)Nc1cc(-c2ccc(F)nc2)c(-c2cncc(C(=O)OCC)c2)cn1` [Example 86, Ethyl 6′-{[(ethylamino)carbonyl]amino}-6″-fluoro-3,3′:4′,3″-terpyridine-5-carboxylate], the inhibition at 12.5 µM was 99.9%.
`CCNC(=O)Nc1ccc(-c2nc(-c3nccn3CCOC)c(C(=O)O)s2)cn1` [Example 89, 2-(6-{[(ethylamino)carbonyl]amino}pyridin-3-yl)-4-[1-(2-methoxyethyl)-1H-imidazol-2-yl]-1,3-thiazole-5-carboxylic acid] was tested, and the inhibition at 12.5 µM was 86.1%.
`CCNC(=O)Nc1ccc(-c2nc(C(=O)NCCOC)c(C(=O)O)s2)cn1` [Example 91, 2-(6-{[(Ethylamino)carbonyl]amino}pyridin-3-yl)-4-{[(2-methoxyethyl)amino]carbonyl}-1,3-thiazole-5-carboxylic acid] showed an inhibition at 12.5 µM of 101%.
`CCNC(=O)Nc1ccc(-c2nc(C(=O)N[C@@H](C)COC)c(C(=O)O)s2)cn1` [Example 92, 2-(6-{[(ethylamino)carbonyl]amino}pyridin-3-yl)-4-({[(1S)-2-methoxy-1-methylethyl]amino}carbonyl)-1,3-thiazole-5-carboxylic acid] gave an inhibition at 12.5 µM of 101%.
`CCNC(=O)Nc1ccc(-c2nc(-c3nccn3C)c(C(=O)O)s2)cn1` [Example 93, 2-(6-{[(Ethylamino)carbonyl]amino}pyridin-3-yl)-4-(1-methyl-1H-imidazol-2-yl)-1,3-thiazole-5-carboxylic acid] gave an inhibition at 12.5 µM of 99.1%.
`CCNC(=O)Nc1ccc(-c2nc(C(=O)NC(C)(C)C)c(C(=O)O)s2)cn1` [Example 94, 4-[(tert-Butylamino)carbonyl]-2-(6-{[(ethylamino)carbonyl]amino}pyridin-3-yl)-1,3-thiazole-5-carboxylic acid] gave an inhibition at 12.5 µM of 98.9%.
For `CCNC(=O)Nc1cc(-c2ccccc2)c(-c2cncc(C(=O)O)c2)cn1` [Example 95, 6′-{[(Ethylamino)carbonyl]amino}-4′-phenyl-3,3′-bipyridine-5-carboxylic acid], the inhibition at 12.5 µM was 100%.
For `CCNC(=O)Nc1cc(-c2ccccc2)c(-c2cccc(C(=O)O)c2)cn1` [Example 96, 3-(6-{[(Ethylamino)carbonyl]amino}-4-phenylpyridin-3-yl)benzoic acid], the inhibition at 12.5 µM was 95.4%.
`CCNC(=O)Nc1cc(-c2ccccc2)c(-c2ncc(C(=O)O)s2)cn1` [Example 97, 2-(6-{[(Ethylamino)carbonyl]amino}-4-phenylpyridin-3-yl)-1,3-thiazole-5-carboxylic acid] showed an inhibition at 12.5 µM of 101%.
In the case of `CCCCNC(=O)c1nc(-c2cnc(NC(=O)NCC)cc2-c2ccccc2)sc1C(=O)O` [Example 98, 4-[(Butylamino)carbonyl]-2-(6-{[(ethylamino)carbonyl]amino}-4-phenylpyridin-3-yl)-1,3-thiazole-5-carboxylic acid], the inhibition at 12.5 µM was 99.3%.
